Read-outs that look alike come from different tables or passages of the source.
Tests used:
PKC-β-I = biological target: T1, PKC-β-I (Homo sapiens, UniProt P05771); assay: Cell-free PKC competition binding assay against 3H-PDBu; details: for PKC binding affinity and selectivity in words: PKC-β and PKC-δ; for logKi (best-fit value), PKC-β-I: log of Ki in nM
T1 construct: purchased Invitrogen
Text: (§1) With a diverse library of compounds bearing unique functionalities on the A-, B-, and C-rings (Fig. 6), we began to explore how these modifications affect PKC binding (Fig. 7A), NF-κB activation (Fig. 7B), cell permeation and PKC translocation (Fig. 7, C and D), and latency reversal in J-Lat cells (Fig. 8). […] We conducted this assay with phosphatidyl serine vesicles in solution that mimic the cellular membrane and play a critical role in the binding of small molecules to the PKC C1 domain (Fig. 7A) ([64]).
(§2) Cell-free PKC Binding Assay
The protein kinase C (PKC) affinity of EBC-46 and EBC-46 analogs was determined via […]
entails a glass-fiber filtration method to determine bound radioligand. The method of determining the radioligand Kd is also described.
(§3) Tris HCl (Fisher, ≥ 99%, stored at room temperature)
(§4) Phosphatidylserine (Avanti Polar Lipids, porcine, 25 mg/mL CHCl3 solution, stored at - […]
(§5) Bovine serum albumin (Sigma -Aldrich, ≥ 98%, globulin free, protease free, stored at 4 […]
Human PKC-β-I-GST fusion protein (Invitrogen, aliquoted and stored at -78 °C) Human PKC-δ-GST fusion protein (Invitrogen, aliquoted and stored at -78 °C) Glass-fiber filters (Whatman GF/B) […]
(§6) a final concentration of 500 nM.
(§7) Preparation of phosphatidylserine (PS) vesicles :
(§8) For every 96 samples, 3.5 mg phosphatidylserine (140 μL) (25 mg/mL CHCl3 solution) was concentrated by removing chloroform under reduced pressure. The phosphatidylserine residue was resuspended in freshly prepared PKC binding assay buffer (3.5 mL), capped, and then thoroughly mixed by alternating between sonicating and vortexing, in 10 second intervals for 1 minute or until a cloudy white mixture (Branson Sonifier 250, power = 2, 50% duty cycle). The resulting cloudy white mixture (1 mg/mL) was stored on ic e until use.
(§9) Preparation of the "master mix" Solution :
(§10) Constituent Stock concentration (final concentration/amount in “master mix”):
(§11) PS vesicles (0.103 mg/mL)
(§12) Deionized H2O - Final vol of 30 mL
(§13) Preparation of PKC binding assay buffer:
(§14) For every 96 samples, to a 50 mL polypropylene tube was added Tris -HCl (pH 7.4, 1 M, 1.5 mL), KCl (1 M, 3 mL), CaCl2 (0.1 M, 35 μL – conventional isoforms only), and bovine serum albumin (60 mg). This mixture was diluted to 30 mL with deionized H2O and mixed gently. The buffer was […]
(§15) Preparation of PKC isoform solution:
(§16) For every 96 samples, PKC isoform solution was prepared by dissolving a 4 μg aliquot of the indicated recombinant human PKC isoform into 26.5 mL of PKC binding assay buffer. The diluted PKC was stored on ice for immediate use.
(§17) Preparation of PKC “master mix” solution:
(§18) To the PKC-isoform solution was added 1 mg/mL PS vesicles solution (3.30 mL), and 500 nM […]
(§19) The resulting “master mix” solution was vortexed and stored on […]
(§20) Preparation of analog compound dilutions:
(§21) Compound dilutions were prepared with filtered DMSO by serially diluting from a chosen "high" concentration. For the saturation binding experiment (radioligand Kd determination), the maximum radioligand concentration used was 4.0 nM with 2-fold dilutions between data points […]
(§22) the middle of the binding curve.
For the competition binding experiment (analog Ki determination), 7 or 14 concentrations were used to define the inhibition curve, and compounds dilutions changed by factors of 2 or √2 between data points. The concentrations were chosen such that the in-assay concentration for the data points in the middle of the binding curve were approximately equal to the IC50 of the compound (if the IC50 is unknown, an exploratory binding assay is recommended prior to Ki determination). For assays with one compound per sheet, the √2-fold dilutions were prepared for the concentrations in […]
PKC binding assay protocol (Saturation -binding experiment and Competition -binding experiment)
1) Glass-fiber filters were prepared by soaking them in a solution of aqueous polyethyleneimine

PKC-δ = biological target: T2, PKC-δ (Homo sapiens, UniProt Q05655); assay: as above; details: for logKi (best-fit value), PKC-δ: log of Ki in nM
T2 construct: purchased Invitrogen (Sinobiological for the SUW402 experiment)
Text: as §1, §2
The protein kinase C (PKC) affinity of EBC-46 and EBC-46 analogs was determined via competition with 3H-phorbol-12,13-dibutyrate (3H-PDBu) as described below. This procedure entails a glass-fiber filtration method to determine bound radioligand. The method of determining the radioligand Kd is also described.
as §3, §4, §5
Human PKC-β-I-GST fusion protein (Invitrogen, aliquoted and stored at -78 °C) Human PKC-δ-GST fusion protein (Invitrogen, aliquoted and stored at -78 °C) Glass-fiber filters (Whatman GF/B)
Preparation of 3H -PDBu solution : […]
as §6, §7, §8, §9, §10, §11, §12, §13, §14, §15, §16, §17, §18, §19, §20, §21
isoforms ranges from 0.3 – 0.8 nM. […]
as §22
For the competition binding experiment (analog Ki determination), 7 or 14 concentrations were used to define the inhibition curve, and compounds dilutions changed by factors of 2 or √2 between data points. The concentrations were chosen such that the in-assay concentration for the data points in the middle of the binding curve were approximately equal to the IC50 of the compound (if the IC50 is unknown, an exploratory binding assay is recommended prior to Ki determination). For assays with one compound per sheet, the √2-fold dilutions were prepared for the concentrations in the middle of the curve (e.g., for SUW400, the analog dilutions used were 15000 nM, 7500 nM, […]
PKC binding assay protocol (Saturation -binding experiment and Competition -binding experiment) […]

[1] = HotNM 2.5, HotKdNM 0.37, supplement fit, read-out: Ki (best-fit value), PKC-β-I
[2] = competition against radiolabeled PDBu, Fig. 7A and text, read-out: Ki PKC-β
[3] = HotNM 2.5, HotKdNM 0.62, supplement fit, read-out: Ki (best-fit value), PKC-δ
[4] = competition against radiolabeled PDBu, Fig. 7A and text, read-out: Ki PKC-δ

T1 sequence (P05771 whole entry): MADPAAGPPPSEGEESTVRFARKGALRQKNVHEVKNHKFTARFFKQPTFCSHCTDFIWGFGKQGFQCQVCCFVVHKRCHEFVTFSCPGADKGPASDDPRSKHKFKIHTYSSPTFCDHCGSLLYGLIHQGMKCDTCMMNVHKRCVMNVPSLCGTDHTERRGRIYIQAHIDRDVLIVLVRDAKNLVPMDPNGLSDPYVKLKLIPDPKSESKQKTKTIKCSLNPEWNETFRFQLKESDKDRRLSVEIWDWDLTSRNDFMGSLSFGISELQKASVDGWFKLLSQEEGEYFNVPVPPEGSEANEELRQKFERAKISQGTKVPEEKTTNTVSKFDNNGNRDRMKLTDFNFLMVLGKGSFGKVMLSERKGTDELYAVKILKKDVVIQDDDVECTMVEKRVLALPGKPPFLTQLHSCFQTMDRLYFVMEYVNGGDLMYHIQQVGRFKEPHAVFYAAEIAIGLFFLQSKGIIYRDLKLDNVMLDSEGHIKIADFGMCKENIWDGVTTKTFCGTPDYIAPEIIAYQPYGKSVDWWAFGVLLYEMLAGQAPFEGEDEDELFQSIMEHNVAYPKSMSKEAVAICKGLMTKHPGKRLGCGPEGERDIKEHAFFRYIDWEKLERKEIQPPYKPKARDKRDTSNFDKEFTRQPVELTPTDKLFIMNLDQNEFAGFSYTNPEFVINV
T2 sequence (Q05655 whole entry): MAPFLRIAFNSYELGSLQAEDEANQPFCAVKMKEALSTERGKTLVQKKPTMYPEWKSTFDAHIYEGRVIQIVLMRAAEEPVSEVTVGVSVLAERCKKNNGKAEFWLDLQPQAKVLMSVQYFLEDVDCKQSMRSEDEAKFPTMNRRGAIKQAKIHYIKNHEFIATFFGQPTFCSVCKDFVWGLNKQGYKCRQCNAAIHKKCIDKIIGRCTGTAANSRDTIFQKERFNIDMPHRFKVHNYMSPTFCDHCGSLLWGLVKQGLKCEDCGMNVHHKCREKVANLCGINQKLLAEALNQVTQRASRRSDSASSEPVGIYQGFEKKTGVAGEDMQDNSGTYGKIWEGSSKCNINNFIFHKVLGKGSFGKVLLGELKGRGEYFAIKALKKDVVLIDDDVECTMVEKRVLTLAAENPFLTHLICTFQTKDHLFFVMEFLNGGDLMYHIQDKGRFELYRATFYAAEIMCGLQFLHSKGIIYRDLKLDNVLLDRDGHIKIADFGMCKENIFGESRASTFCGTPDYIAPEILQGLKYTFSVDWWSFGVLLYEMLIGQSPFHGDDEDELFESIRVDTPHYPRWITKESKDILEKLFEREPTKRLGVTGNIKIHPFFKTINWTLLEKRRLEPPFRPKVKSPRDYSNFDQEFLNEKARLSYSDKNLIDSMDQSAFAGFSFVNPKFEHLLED

SMILES: C/C=C(\C)C(=O)O[C@@H]1[C@@H](C)[C@@]2(O)[C@H]([C@@H]3C(C)(C)[C@]13OC(=O)c1ccccc1)[C@@H]1O[C@]1(CO)[C@@H](O)[C@]1(O)C(=O)C(C)=C[C@H]12 [SUW428]
- selectivity for PKC-β over PKC-δ (PKC-β-I): > 12 fold
- PKC-β selectivity (PKC-β-I; Fig. 7A, PKC-β over PKC-δ): 12.5
- Ki (PKC-β-I; [1]): 5.12 nM
- PKC binding affinity and selectivity in words (PKC-β-I): approximately three times lower affinity for PKC-β compared to EBC-46
- Ki (PKC-β-I; [2]): 5.1 nM
- logKi (best-fit value), PKC-β-I (PKC-β-I; HotNM 2.5, HotKdNM 0.37): 0.7091
- weaker binding affinity for PKC-δ than EBC-46 (PKC-δ): ~ 20 ×
- Ki (PKC-δ; [3]): 64.2 nM
- Ki (PKC-δ; [4]): 64 nM
- logKi (best-fit value), PKC-δ (PKC-δ; HotNM 2.5, HotKdNM 0.62): 1.808

SMILES: CC[C@H](C)C(=O)O[C@@]12[C@H](OC(C)(C)C)[C@@H](C)[C@@]3(O)[C@H]([C@@H]1C2(C)C)[C@@H]1O[C@]1(CO)[C@@H](O)[C@]1(O)C(=O)C(C)=C[C@H]13 [SUW430]
- selectivity for PKC-β over PKC-δ (PKC-β-I): 40 fold
- Ki (PKC-β-I; [1]): 1.47 nM
- Ki (PKC-β-I; [2]): 1.5 nM
- logKi (best-fit value), PKC-β-I (PKC-β-I; HotNM 2.5, HotKdNM 0.37): 0.1684
- weaker binding affinity for PKC-δ than EBC-46 (PKC-δ): ~ 20 ×
- Ki (PKC-δ; [3]): 59.7 nM
- Ki (PKC-δ; [4]): 60 nM
- logKi (best-fit value), PKC-δ (PKC-δ; HotNM 2.5, HotKdNM 0.62): 1.776

SMILES: C/C=C(\C)C(=O)O[C@@H]1[C@@H](C)[C@@]2(O)[C@H]([C@@H]3C(C)(C)[C@]13OC(=O)Cc1cccc3ccccc13)[C@@H]1O[C@]1(CO)[C@@H](O)[C@]1(O)C(=O)C(C)=C[C@H]12 [SUW431]
- selectivity for PKC-β over PKC-δ (PKC-β-I): 1.4 fold
- stronger binding for PKC-β compared to EBC-46 (PKC-β-I): ~ 20 fold
- Ki (PKC-β-I; [1]): 0.079 nM
- PKC binding affinity and selectivity in words (PKC-β-I): remarkable affinities in the picomolar range
- logKi (best-fit value), PKC-β-I (PKC-β-I; HotNM 2.5, HotKdNM 0.37): -1.102
- Ki (PKC-β-I; read-out: binding for PKC-β (Ki)): 0.079 nM
- stronger binding for PKC-δ compared to EBC-46 (PKC-δ): 30 fold
- Ki (PKC-δ; [3]): 0.114 nM
- greater affinity to PKC-δ than that reported for SUW013 (PKC-δ; comparison with literature value): approximately 10 fold
- logKi (best-fit value), PKC-δ (PKC-δ; HotNM 2.5, HotKdNM 0.62): -0.9424
- Ki (PKC-δ; read-out: binding for PKC-δ (Ki)): 0.11 nM

Source: paper PMC11778240, “Synthesis and preclinical evaluation of tigilanol tiglate analogs as latency-reversing agents for the eradication of HIV” (Science Advances, 2025)
